From publication PMC3623729 (Journal of medicinal chemistry, 2013)
“Also recorded” adds a separate entry of the source.

Target: T1, human RXRα (Homo sapiens, UniProt P19793)
T1 sequence (P19793 1-462): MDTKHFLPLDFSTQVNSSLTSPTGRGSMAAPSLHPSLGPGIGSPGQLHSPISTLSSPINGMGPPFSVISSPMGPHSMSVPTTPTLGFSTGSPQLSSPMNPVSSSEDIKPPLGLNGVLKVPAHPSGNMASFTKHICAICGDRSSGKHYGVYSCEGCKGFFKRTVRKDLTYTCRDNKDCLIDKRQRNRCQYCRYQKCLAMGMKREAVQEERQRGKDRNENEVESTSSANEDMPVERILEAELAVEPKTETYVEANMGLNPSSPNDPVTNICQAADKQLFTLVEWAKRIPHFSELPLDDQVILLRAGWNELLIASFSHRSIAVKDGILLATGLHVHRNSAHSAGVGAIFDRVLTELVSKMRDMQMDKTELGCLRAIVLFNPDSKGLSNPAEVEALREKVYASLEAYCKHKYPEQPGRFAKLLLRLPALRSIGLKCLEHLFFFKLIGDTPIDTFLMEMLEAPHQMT
Experiment: RXRE-luciferase reporter gene assay
Type: cell-based
Conditions: for Max IR: maximum induction ratio observed: compounds tested at variable concentrations

Structure (SMILES) | RXR activity in words (active / inactive) | Max IR: maximum induction ratio observed
CCCCn1c2c(c3ccccc3c1=O)C(=O)c1ccccc1-2 [Compound 109, 6-Butyl-5H-indeno[1,2-c]isoquinoline-5,11(6H)-dione] | inactive | 
Cn1c2c(c3ccc(/C=C/C(=O)O)cc3c1=O)C(=O)c1ccccc1-2 [Compound 13, (E)-3-(6-Methyl-5,11-dioxo-6,11-dihydro-5H-indeno[1,2-c]isoquinolin-3-yl)acrylic Acid] | inactive | 
C[N+](C)(C)CCCn1c2c(c3ccccc3c1=O)C(=O)c1ccccc1-2.[I-] [Compound 104, 6-(3-(Trimethylammonium)propyl)-5H-indeno[1,2-c]isoquinoline-5,11(6H)-dione Iodide] | inactive | NA (NA: Max IR not determined because IR < 2.)
COC(=O)/C=C/c1ccc2c3c(n(CCCN)c(=O)c2c1)-c1ccccc1C3=O.Cl [Compound 87, (E)-Methyl 3-(6-(3-Aminopropyl)-5,11-dioxo-6,11-dihydro-5H-indeno[1,2-c]isoquinolin-3-yl)acrylate Hydrochloride] | lack of activity | NA (NA: Max IR not determined because IR < 2.)
Cn1c2c(c3ccc(C(N)=O)cc3c1=O)C(=O)c1ccccc1-2 [Compound 31, 6-Methyl-5,11-dioxo-6,11-dihydro-5H-indeno[1,2-c]isoquinoline-3-carboxamide] | inactive | 
CNCCCn1c2c(c3ccc([N+](=O)[O-])cc3c1=O)C(=O)c1ccccc1-2 [Compound 125] | detrimental for activity | NA (NA: Max IR not determined because IR < 2.)
CN(C)CCCn1c2c(c3ccc(Br)cc3c1=O)C(=O)c1ccccc1-2 [Compound 93, 3-Bromo-6-(3-(dimethylamino)propyl)-5,11-dioxo-6,11-dihydro-5H-indeno[1,2-c]isoquinoline] | active | 
NC(=O)CCn1c2c(c3ccccc3c1=O)C(=O)c1ccccc1-2 [Compound 107, 3-(5,11-Dioxo-5H-indeno[1,2-c]isoquinolin-6(11H)-yl)propanamide] | inactive | NA (NA: Max IR not determined because IR < 2.)
N#Cc1ccc2c3c(n(CCCN4CCOCC4)c(=O)c2c1)-c1ccccc1C3=O [Compound 128] | inactive; also recorded: lack of activity | 
O=C(O)CCn1c2c(c3ccc(Br)cc3c1=O)C(=O)c1ccccc1-2 [Compound 97, Lithium 6(2-Carboxyethyl)-3-bromo-5,6-dihydro-5,11-dioxo-11H-indeno[1,2-c]isoquinoline] | inactive | NA (NA: Max IR not determined because IR < 2.)
O=C1c2ccccc2-c2c1c1ccc(Br)cc1c(=O)n2CCCO [Compound 94, 3-Bromo-5,6-dihydro-6(3-hydroxypropyl)-5,11-dioxo-indeno[1,2-c]isoquinoline] | inactive | 
N#Cc1ccc2c3c(n(CCCn4ccnc4)c(=O)c2c1)-c1ccccc1C3=O [Compound 127] | inactive; also recorded: lack of activity | 
CC(=O)NCCCn1c2c(c3ccc([N+](=O)[O-])cc3c1=O)C(=O)c1ccccc1-2 [Compound 143] | detrimental for activity | 
O=C(O)CCn1c2c(c3ccccc3c1=O)C(=O)c1ccccc1-2 [Compound 106, 3-(5,11-Dioxo-5H-indeno[1,2-c]isoquinolin-6(11H)-yl)propanoic Acid] | inactive | NA (NA: Max IR not determined because IR < 2.)
COC(=O)CC(=O)Nc1ccc2c3c(n(CCCN)c(=O)c2c1)-c1ccccc1C3=O [Compound 52] | active | 
CNCCCn1c2c(c3ccccc3c1=O)C(=O)c1ccccc1-2 [Compound 105, 6-(3-(Methylamino)propyl)-5H-indeno[1,2-c]isoquinoline-5,11(6H)-dione] | active; also recorded: high activity | 
COC(=O)c1ccc2c3c(n(CCCN4CCOCC4)c(=O)c2c1)-c1ccccc1C3=O [Compound 69, Methyl 6-(3-Morpholinopropyl)-5,11-dioxo-6,11-dihydro-5H-indeno[1,2-c]isoquinoline-3-carboxylate] | inactive; also recorded: lack of activity | 
NCCCn1c2c(c3ccc([N+](=O)[O-])cc3c1=O)C(=O)c1ccccc1-2 [Compound 135] | detrimental for activity | NA (NA: Max IR not determined because IR < 2.)

Structure (SMILES) | RXR activity in words (active / inactive) | Max IR: maximum induction ratio observed
Cn1c2c(c3ccc(C(=O)O)cc3c1=O)C(=O)c1ccccc1-2 [Compound 30, 6-Methyl-5,11-dioxo-6,11-dihydro-5H-indeno[1,2-c]isoquinoline-3-carboxylic Acid] | inactive | 
Cn1c2c(c3ccc(NC(=O)C(=O)O)cc3c1=O)C(=O)c1ccccc1-2 [Compound 45] | inactive | 
CC(C)(C)OC(=O)NCCCn1c2c(c3ccc(N)cc3c1=O)C(=O)c1ccccc1-2 [Compound 141] | inactivated | 
COC(=O)/C=C/c1ccc2c3c(n(C)c(=O)c2c1)-c1ccccc1C3=O [Compound 12, (E)-Methyl 3-(6-Methyl-5,11-dioxo-6,11-dihydro-5H-indeno[1,2-c]isoquinolin-3-yl)acrylate] | inactive | 
Cn1c2c(c3ccc(/C=C/C#N)cc3c1=O)C(=O)c1ccccc1-2 [Compound 11, (E)-3-(6-Methyl-5,11-dioxo-6,11-dihydro-5H-indeno[1,2-c]isoquinolin-3-yl)acrylonitrile] | inactive | 
O=C1c2ccccc2-c2c1c1ccccc1c(=O)n2CCCO [Compound 151] | inactive | NA (NA: Max IR not determined because IR < 2.)
COCCCn1c2c(c3ccccc3c1=O)C(=O)c1ccccc1-2 [Compound 108, 6-(3-Methoxypropyl)-5H-indeno[1,2-c]isoquinoline-5,11(6H)-dione] | inactive | 
[N-]=[N+]=NCCCn1c2c(c3ccc([N+](=O)[O-])cc3c1=O)C(=O)c1ccccc1-2 [Compound 134] | inactive | 
CN(C)CCCn1c2c(c3ccc(C#N)cc3c1=O)C(=O)c1ccccc1-2 [Compound 129] | active | 
COC(=O)c1ccc2c3c(n(CCCN(C)C)c(=O)c2c1)-c1ccccc1C3=O.Cl [Compound 70, Methyl 6-(3-(Dimethylamino)propyl)-5,11-dioxo-6,11-dihydro-5H-indeno[1,2-c]isoquinoline-3-carboxylate Hydrochloride] | active | 
CN(C)CCCn1c2c(c3ccc([N+](=O)[O-])cc3c1=O)C(=O)c1ccccc1-2 [Compound 113, 6-(3-(Dimethylamino)propyl)-3-nitro-5H-indeno[1,2-c]isoquinoline-5,11(6H)-dione] | detrimental for activity | NA (NA: Max IR not determined because IR < 2.)
O=C1c2ccccc2-c2c1c1ccc([N+](=O)[O-])cc1c(=O)n2CCCCl [Compound 133] | inactive | 
O=C1c2ccccc2-c2c1c1ccc([N+](=O)[O-])cc1c(=O)n2CCCCO [Compound 120, 6-(4-Hydroxybutyl)-3-nitro-5H-indeno[1,2-c]isoquinoline-5,11(6H)-dione] | inactive | 
O=C1c2ccccc2-c2c1c1ccccc1c(=O)n2CCCn1ccnc1 [Compound 102, 5,6-Dihydro-6-(3-imidazolyl-1-propyl)-5,11-dioxo-11H-indeno[1,2-c]isoquinoline] | inactive | NA (NA: Max IR not determined because IR < 2.)
O=C1c2ccccc2-c2c1c1ccc(Br)cc1c(=O)n2CCCn1ccnc1 [Compound 91, 3-Bromo-6-(3-(1H-imidazol-1-yl)propyl)-5,11-dioxo-6,11-dihydro-5H-indeno[1,2-c]isoquinoline] | inactive | 
NCCCn1c2c(c3ccc(NCC(=O)O)cc3c1=O)C(=O)c1ccccc1-2 [Compound 61] | active | 
O=C1c2ccccc2-c2c1c1ccc(Br)cc1c(=O)n2CCCN1CCOCC1 [Compound 92, 3-Bromo-6-(3-morpholinopropyl)-5,11-dioxo-6,11-dihydro-5H-indeno[1,2-c]isoquinoline] | inactive | NA (NA: Max IR not determined because IR < 2.)
Cn1c2c(c3ccc(C#N)cc3c1=O)C(=O)c1ccccc1-2 [Compound 39, 3-Cyano-5,11-dihydro-6-methyl-5,11-dioxoindeno[1,2-c]isoquinoline] | inactive | 
